{"source": "ChEMBL document CHEMBL3885881", "about": "“DrugMatrix”", "species_on_record": "Rattus norvegicus", "test": "DrugMatrix - Regimen: Daily Repeat", "format": "toxicity, organism-based, Sprague-Dawley", "set-up": "regimen Daily Repeat, gender Male, age 6-8 weeks", "settings": "in vivo, po, route oral GAVAGE, vehicle 100 % WATER", "key": {"[1]": {"settings": "1 mg/kg, 72 h, tissue Plasma, dose level Low, time 3 day"}, "[2]": {"settings": "1 mg/kg, 120 h, tissue Blood, dose level Low, time 5 day"}, "[3]": {"settings": "1 mg/kg, 120 h, tissue Plasma, dose level Low, time 5 day"}, "[4]": {"settings": "10 mg/kg, 72 h, tissue Blood, dose level High, time 3 day"}, "[5]": {"settings": "10 mg/kg, 72 h, tissue Plasma, dose level High, time 3 day"}, "[6]": {"settings": "10 mg/kg, 120 h, tissue Blood, dose level High, time 5 day"}, "[7]": {"settings": "10 mg/kg, 120 h, tissue Plasma, dose level High, time 5 day"}}}
{"sequence": "THIMEROSAL", "values": [{"measurement": "TOTAL BILIRUBIN", "setting": "[1]", "value": 0.2, "unit": "mg/dL"}, {"measurement": "TOTAL PROTEIN", "setting": "[1]", "value": 5.73, "unit": "G/DL"}, {"measurement": "ABSOLUTE BASOPHIL", "setting": "[2]", "value": 0, "unit": "CELLS/uL"}, {"measurement": "ABSOLUTE EOSINOPHIL", "setting": "[2]", "value": 50.33, "unit": "CELLS/uL"}, {"measurement": "ABSOLUTE MONOCYTE", "setting": "[2]", "value": 268.67, "unit": "CELLS/uL"}, {"measurement": "ABSOLUTE SEGMENTED NEUTROPHIL", "setting": "[2]", "value": 1091, "unit": "CELLS/uL"}, {"measurement": "BASOPHIL", "setting": "[2]", "value": 0, "unit": "%"}, {"measurement": "EOSINOPHIL", "setting": "[2]", "value": 0.33, "unit": "%"}, {"measurement": "ERYTHROCYTE COUNT", "setting": "[2]", "value": 5.58, "unit": "x10E6/uL"}, {"measurement": "HEMATOCRIT", "setting": "[2]", "value": 35.07, "unit": "%"}, {"measurement": "LEUKOCYTE COUNT", "setting": "[2]", "value": 11.73, "unit": "x10E3/uL"}, {"measurement": "LYMPHOCYTE", "setting": "[2]", "value": 88, "unit": "%"}, {"measurement": "MEAN CORPUSCULAR HEMOGLOBIN", "setting": "[2]", "value": 25.23, "unit": "pg"}, {"measurement": "MEAN CORPUSCULAR HEMOGLOBIN CONCENTRATION", "setting": "[2]", "value": 40.13, "unit": "G/DL"}, {"measurement": "NUCLEATED RED BLOOD CELLS", "setting": "[2]", "value": "0 /100WBC"}, {"measurement": "PLATELET COUNT", "setting": "[2]", "value": 1316.33, "unit": "x10E3/uL"}, {"measurement": "ALANINE AMINOTRANSFERASE", "setting": "[3]", "value": 43.33, "unit": "u/L"}, {"measurement": "ALKALINE PHOSPHATASE", "setting": "[3]", "value": 369, "unit": "u/L"}, {"measurement": "ASPARTATE AMINOTRANSFERASE", "setting": "[3]", "value": 83.33, "unit": "u/L"}, {"measurement": "BLOOD UREA NITROGEN", "setting": "[3]", "value": 15.67, "unit": "mg/dL"}, {"measurement": "CARBON DIOXIDE", "setting": "[3]", "value": 30.33, "unit": "mmol/L"}, {"measurement": "CHOLESTEROL", "setting": "[3]", "value": 67.33, "unit": "mg/dL"}, {"measurement": "CREATINE PHOSPHOKINASE", "setting": "[3]", "value": 227.33, "unit": "u/L"}, {"measurement": "CREATININE", "setting": "[3]", "value": 0.2, "unit": "mg/dL"}, {"measurement": "GLUCOSE", "setting": "[3]", "value": 177.33, "unit": "mg/dL"}, {"measurement": "LACTATE DEHYDROGENASE", "setting": "[3]", "value": 246, "unit": "u/L"}, {"measurement": "LIPASE", "setting": "[3]", "value": 10, "unit": "u/L"}, {"measurement": "PHOSPHORUS", "setting": "[3]", "value": 11.2, "unit": "mg/dL"}, {"measurement": "POTASSIUM", "setting": "[3]", "value": 6.65, "unit": "MEQ/L"}, {"measurement": "TOTAL BILIRUBIN", "setting": "[3]", "value": 0.27, "unit": "mg/dL"}, {"measurement": "TOTAL PROTEIN", "setting": "[3]", "value": 5.93, "unit": "G/DL"}, {"measurement": "URIC ACID", "setting": "[3]", "value": 1.4, "unit": "mg/dL"}, {"measurement": "ABSOLUTE BASOPHIL", "setting": "[4]", "value": 0, "unit": "CELLS/uL"}, {"measurement": "ABSOLUTE EOSINOPHIL", "setting": "[4]", "value": 0, "unit": "CELLS/uL"}, {"measurement": "ABSOLUTE MONOCYTE", "setting": "[4]", "value": 196.33, "unit": "CELLS/uL"}, {"measurement": "ABSOLUTE SEGMENTED NEUTROPHIL", "setting": "[4]", "value": 1492, "unit": "CELLS/uL"}, {"measurement": "BASOPHIL", "setting": "[4]", "value": 0, "unit": "%"}, {"measurement": "EOSINOPHIL", "setting": "[4]", "value": 0, "unit": "%"}, {"measurement": "ERYTHROCYTE COUNT", "setting": "[4]", "value": 5.18, "unit": "x10E6/uL"}, {"measurement": "HEMATOCRIT", "setting": "[4]", "value": 33.3, "unit": "%"}, {"measurement": "HEMOGLOBIN", "setting": "[4]", "value": 13.3, "unit": "G/DL"}, {"measurement": "LEUKOCYTE COUNT", "setting": "[4]", "value": 14.17, "unit": "x10E3/uL"}, {"measurement": "LYMPHOCYTE", "setting": "[4]", "value": 88.67, "unit": "%"}, {"measurement": "MEAN CORPUSCULAR HEMOGLOBIN", "setting": "[4]", "value": 25.73, "unit": "pg"}, {"measurement": "MEAN CORPUSCULAR HEMOGLOBIN CONCENTRATION", "setting": "[4]", "value": 39.93, "unit": "G/DL"}, {"measurement": "NEUTROPHIL", "setting": "[4]", "value": 10, "unit": "%"}, {"measurement": "NUCLEATED RED BLOOD CELLS", "setting": "[4]", "value": "0.33 /100WBC"}, {"measurement": "PLATELET COUNT", "setting": "[4]", "value": 1209, "unit": "x10E3/uL"}, {"measurement": "ALANINE AMINOTRANSFERASE", "setting": "[5]", "value": 54.33, "unit": "u/L"}, {"measurement": "ALBUMIN", "setting": "[5]", "value": 3.7, "unit": "G/DL"}, {"measurement": "ALKALINE PHOSPHATASE", "setting": "[5]", "value": 440.67, "unit": "u/L"}, {"measurement": "ASPARTATE AMINOTRANSFERASE", "setting": "[5]", "value": 82.67, "unit": "u/L"}, {"measurement": "BLOOD UREA NITROGEN", "setting": "[5]", "value": 15, "unit": "mg/dL"}, {"measurement": "CARBON DIOXIDE", "setting": "[5]", "value": 30, "unit": "mmol/L"}, {"measurement": "CHOLESTEROL", "setting": "[5]", "value": 107.67, "unit": "mg/dL"}, {"measurement": "CREATINE PHOSPHOKINASE", "setting": "[5]", "value": 183.33, "unit": "u/L"}, {"measurement": "CREATININE", "setting": "[5]", "value": 0.16, "unit": "mg/dL"}, {"measurement": "LACTATE DEHYDROGENASE", "setting": "[5]", "value": 137, "unit": "u/L"}, {"measurement": "PHOSPHORUS", "setting": "[5]", "value": 11, "unit": "mg/dL"}, {"measurement": "POTASSIUM", "setting": "[5]", "value": 6.64, "unit": "MEQ/L"}, {"measurement": "TOTAL BILIRUBIN", "setting": "[5]", "value": 0.2, "unit": "mg/dL"}, {"measurement": "TOTAL PROTEIN", "setting": "[5]", "value": 5.57, "unit": "G/DL"}, {"measurement": "ABSOLUTE BASOPHIL", "setting": "[6]", "value": 0, "unit": "CELLS/uL"}, {"measurement": "ABSOLUTE EOSINOPHIL", "setting": "[6]", "value": 0, "unit": "CELLS/uL"}, {"measurement": "ABSOLUTE LYMPHOCYTE", "setting": "[6]", "value": 10043.33, "unit": "CELLS/uL"}, {"measurement": "ABSOLUTE MONOCYTE", "setting": "[6]", "value": 291.67, "unit": "CELLS/uL"}, {"measurement": "ABSOLUTE SEGMENTED NEUTROPHIL", "setting": "[6]", "value": 1665, "unit": "CELLS/uL"}, {"measurement": "BASOPHIL", "setting": "[6]", "value": 0, "unit": "%"}, {"measurement": "EOSINOPHIL", "setting": "[6]", "value": 0, "unit": "%"}, {"measurement": "ERYTHROCYTE COUNT", "setting": "[6]", "value": 6.38, "unit": "x10E6/uL"}, {"measurement": "HEMATOCRIT", "setting": "[6]", "value": 39.67, "unit": "%"}, {"measurement": "HEMOGLOBIN", "setting": "[6]", "value": 15.6, "unit": "G/DL"}, {"measurement": "LEUKOCYTE COUNT", "setting": "[6]", "value": 12, "unit": "x10E3/uL"}, {"measurement": "LYMPHOCYTE", "setting": "[6]", "value": 84.67, "unit": "%"}, {"measurement": "MEAN CORPUSCULAR HEMOGLOBIN", "setting": "[6]", "value": 24.57, "unit": "pg"}, {"measurement": "NEUTROPHIL", "setting": "[6]", "value": 13, "unit": "%"}, {"measurement": "NUCLEATED RED BLOOD CELLS", "setting": "[6]", "value": "0 /100WBC"}, {"measurement": "PLATELET COUNT", "setting": "[6]", "value": 1253, "unit": "x10E3/uL"}, {"measurement": "ALANINE AMINOTRANSFERASE", "setting": "[7]", "value": 56.33, "unit": "u/L"}, {"measurement": "ALKALINE PHOSPHATASE", "setting": "[7]", "value": 463.67, "unit": "u/L"}, {"measurement": "ASPARTATE AMINOTRANSFERASE", "setting": "[7]", "value": 83.67, "unit": "u/L"}, {"measurement": "BLOOD UREA NITROGEN", "setting": "[7]", "value": 15.67, "unit": "mg/dL"}, {"measurement": "CHOLESTEROL", "setting": "[7]", "value": 116.33, "unit": "mg/dL"}, {"measurement": "CREATINE PHOSPHOKINASE", "setting": "[7]", "value": 208.33, "unit": "u/L"}, {"measurement": "CREATININE", "setting": "[7]", "value": 0.22, "unit": "mg/dL"}, {"measurement": "GLUCOSE", "setting": "[7]", "value": 156, "unit": "mg/dL"}, {"measurement": "LACTATE DEHYDROGENASE", "setting": "[7]", "value": 176.33, "unit": "u/L"}, {"measurement": "PHOSPHORUS", "setting": "[7]", "value": 10.43, "unit": "mg/dL"}, {"measurement": "POTASSIUM", "setting": "[7]", "value": 6.38, "unit": "MEQ/L"}, {"measurement": "TOTAL BILIRUBIN", "setting": "[7]", "value": 0.1, "unit": "mg/dL"}, {"measurement": "TOTAL PROTEIN", "setting": "[7]", "value": 6, "unit": "G/DL"}, {"measurement": "URIC ACID", "setting": "[7]", "value": 1.63, "unit": "mg/dL"}]}
